# Square brackets hold non-standard residues; d marks the D form. Peptide text beside a SMILES is read from it. dHyp = O=C(O)[C@H]1C[C@H](O)CN1
# Test system: rats subjected to myocardial infarction
# Assay: myocardial infarction by LAD ligation in rats, three weeks of treatment
# Format: in vivo, rat
# Experimental: Male Lewis rats (300–350 g; M&B, L1. Skendsved, Denmark) were anaesthetized with a neurolept anaesthesic combination (Hypnorm® (fentanyl citrate 0.315 mg/ml and fluanisone 10 mg/ml)+midazolam (5 mg/ml)). Commercial solution of midazolam was diluted 1:2 in distilled water. Three parts of the diluted midazolam is mixed with one part hypnorm®. Anesthesia was induced by s.c. administration of 0.2 ml of this solution per 100 gram rat. When surgical anesthesia was established, an endotracheal cannula is inserted and the animal is artificially ventilated using a Harvard rodent ventilator adjusted to maintain arterial pH at 7.3–7.5 during surgery.
# Doses used are shown below in Table I:
# Three weeks after ligation of LAD, the rats were anesthetized with an i.p, injection of pentobarbital (50 mg/kg). The animals were placed on a heating blanket in order to maintain body temperature at 37° C. Tracheotomy was performed and the rat was ventilated with oxygen using a Harvard rodent ventilator. The ventilator was adjusted to maintain arterial pH at 7.35–7.45. PE50 catheters were placed in the femoral vein and artery for i.v. administration and arterial pressure measurements, respectively. After insertion of the femoral i.v. catheter, the animal was paralysed by i.v. administration of pancuronium, 1 mg/kg. Anaesthesia and respiratory paralysis is maintained by continuous i.v. infusion of pentobarbital (2.5 mg/kg/h) and pancuronium (1 mg/kg/h) delivered in isotonic saline (50 μl/min). A tygon catheter was inserted into the left ventricle via the right carotid artery for determination of left ventricular end-diastolic pressure. After recording of left ventricular end-diastolic pressure (LVEDP), The hearts are removed from the bodies by cutting the veins and arteries a few mm from the hearts. […]
# Using a microscope with a stage that can be moved in predetermined steps, both Masson-trichrome stained slides were examined and the number of points hitting fibrous tissue (blue stained in Masson-trichrome) and normal tissue are counted. […] Infarct size was calculated as % fibrous tissue in the heart.
smiles,measurement,setting,value
"CC(=O)N[C@H](Cc1ccc(O)cc1)C(=O)N1CCC[C@@H]1C(=O)N1C[C@@H](O)C[C@@H]1C(=O)NCC(=O)N[C@H](C)C(=O)NCC(N)=O [Compound 1, Ac-D-Tyr-D-Pro-D-4Hyp-Gly-D-Ala-Gly-NH2] (Ac-[dY][dP][dHyp]G[dA]G-NH2)",left ventricular end-diastolic pressure,"either dose, three weeks",reduced left ventricular end-diastolic pressure
same,heart weight-body weight ratio,"rats, three weeks after MI",reduced by the two highest doses
same,reduction of infarct size relative to vehicle treated MI rats,treatment for three weeks,20–50%
